SMILES strings stand for the structures.

T1 sequence (Q04759 whole entry): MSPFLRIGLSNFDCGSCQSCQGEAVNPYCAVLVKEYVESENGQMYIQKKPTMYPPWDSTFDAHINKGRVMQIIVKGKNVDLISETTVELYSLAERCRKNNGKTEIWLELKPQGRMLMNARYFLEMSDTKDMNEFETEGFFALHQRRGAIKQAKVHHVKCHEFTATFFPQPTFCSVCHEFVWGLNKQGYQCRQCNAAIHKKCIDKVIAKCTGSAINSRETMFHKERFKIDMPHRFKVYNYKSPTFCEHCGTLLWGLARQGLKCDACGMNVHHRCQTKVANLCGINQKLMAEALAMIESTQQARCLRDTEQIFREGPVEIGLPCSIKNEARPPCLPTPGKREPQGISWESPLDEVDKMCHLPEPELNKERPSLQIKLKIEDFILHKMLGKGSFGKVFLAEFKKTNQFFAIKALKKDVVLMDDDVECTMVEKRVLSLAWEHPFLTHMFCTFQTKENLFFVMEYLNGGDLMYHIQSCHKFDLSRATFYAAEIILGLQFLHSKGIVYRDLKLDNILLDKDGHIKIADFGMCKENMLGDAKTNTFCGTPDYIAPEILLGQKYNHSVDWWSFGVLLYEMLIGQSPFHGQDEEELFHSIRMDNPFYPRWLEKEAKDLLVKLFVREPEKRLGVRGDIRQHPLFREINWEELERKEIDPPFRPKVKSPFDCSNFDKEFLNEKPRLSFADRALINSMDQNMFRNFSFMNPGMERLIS

One experiment concerns the target T1, His-PKC-theta (Homo sapiens, UniProt Q04759).
T1 construct: His; purchased Invitrogen
Put plainly: PKC-theta Assay (384-well time resolved fluorescence, IMAP TR-FRET). In kind it is biochemical. The settings on record: Table 2; read-out: Act. Level (IC50 in the PKC-theta Assay). The gist of the method:
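Enzyme at 142 pM phosphorylated 200 nM Fam-S6 peptide with 10 μM ATP in 50 mM HEPES pH 7.6, 10 mM MgCl2, 1 mM DTT for 2 h at room temperature. Product was detected after overnight incubation with IMAP binding reagent and Tb donor by time-resolved FRET.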
By IC50 is commonly meant the midpoint of a concentration-inhibition curve. For the compound `CC1(C)[C@@H](O)C[C@H]1Nc1nc(NCCc2ccc(CN3CCCC3=O)cc2)ncc1C#N` [Cmpd 123], the IC50 lay in the range of 0.8 to 2 µM.

As to `N#Cc1cnc(NCc2ccc(F)cc2F)nc1N[C@H]1CC[C@@H](O)CC1` [Cmpd 20], the IC50 lay in the range of 2 to 10 µM.

For `CC(F)(F)COc1cccc(CCNc2ncc(C#N)c(N[C@@H]3CC[C@H](O)C(C)(C)C3)n2)c1` [Cmpd 155], the IC50 was in the range of 0.1 to 0.8 µM.

Turning to `N#Cc1ccc(CCNc2ncc(C#N)c(N[C@H]3C[C@@H](C(N)=O)C3)n2)cc1` [Cmpd 192], the IC50 was in the range of 2 to 10 µM.

With `CC1(C)C[C@H](O)CC[C@@H]1Nc1nc(NCCc2cccc(Cl)c2)ncc1C#N` [Cmpd 189], the IC50 fell in the range of 0.8 to 2 µM.

For `CC1(C)C[C@H](Nc2nc(NCCc3ccc(S(=O)(=O)N4CCC4)cc3)ncc2C#N)CC[C@@H]1O` [Cmpd 176], the IC50 fell in the range of 0.1 to 0.8 µM.

Consider `CC1(C)[C@@H](O)C[C@H]1Nc1nc(NCCc2ccc(C#N)c(OC(F)(F)F)c2)ncc1C#N` [Cmpd 143], for which the IC50 is 0.8 to 2 µM.

For the compound `CC1(C)[C@@H](O)C[C@H]1Nc1nc(NCCc2ccc(O)cc2)ncc1C#N` [Cmpd 84], the IC50 lay within 0.1 to 0.8 µM.

For the compound `CC1(C)C[C@H](Nc2nc(NCCc3ccccc3C#N)ncc2C#N)CC[C@@H]1O` [Cmpd 156], the IC50 was 0.1 to 0.8 µM.

In the case of `CC1(C)[C@@H](C(N)=O)C[C@H]1Nc1nc(NCCc2ccc(C#N)cc2)ncc1C#N` [Cmpd 194], the IC50 fell in the range of 0.1 to 0.8 µM.

Regarding `COc1ccc(CCNc2ncc(C#N)c(N[C@@H]3C[C@H](O)C3(C)C)n2)cc1` [Cmpd 103], the IC50 lay within 0.1 to 0.8 µM.

Turning to `CN(C)S(=O)(=O)c1ccc(CCNc2ncc(C#N)c(N[C@@H]3CC[C@H](O)C(C)(C)C3)n2)cc1` [Cmpd 175], the IC50 lay in the range of 0.1 to 0.8 µM.

As for `CC1(C)C[C@H](Nc2nc(NCCc3ccc(C#N)c(C(F)(F)F)c3)ncc2C#N)CC[C@@H]1O` [Cmpd 140], the half-inhibitory concentration (IC50) is 0.1 to 0.8 µM.

For `CC1(C)C[C@H](Nc2nc(NCCc3ccc(Cl)c(Cl)c3)ncc2C#N)CC[C@@H]1O` [Cmpd 101], the IC50 is 0.1 to 0.8 µM.

As to `N#Cc1cnc(NCCc2ccc(F)cc2)nc1N[C@H]1CC[C@@H](C(N)=O)CC1` [Cmpd 91], the IC50 was in the range of 0.1 to 0.8 µM.

Still in this experiment, the particulars now being: read-out: Act. Level (IC50 in the PKC-theta Assay).
`CCOc1ncncc1CNc1ncc(C#N)c(N[C@@H]2CC[C@H](O)C(C)(C)C2)n1` [Cmpd 37]: the IC50 was below 0.1 µM.

As for `CC1(C)[C@@H](CO)C[C@@H]1Nc1nc(NCc2cnccc2C(F)(F)F)ncc1C(F)(F)F` [Cmpd 131], the IC50 was 0.1 to 0.8 µM.

As to `CC(C)(F)c1ncncc1CNc1ncc(C#N)c(N[C@@H]2C[C@H](CO)C2(C)C)n1` [Cmpd 15], the IC50 is below 0.1 µM.

As to `CC1(C)[C@@H](O)C[C@H]1Nc1nc(NCCc2ccncc2)ncc1C#N` [Cmpd 186], the IC50 was in the range of 0.8 to 2 µM.

With `Cc1cc(C)n(CCNc2ncc(C#N)c(N[C@@H]3CC[C@H](O)C(C)(C)C3)n2)n1` [Cmpd 198], the IC50 lay within 2 to 10 µM.

On to `CC(C)c1ncncc1CNc1ncc(C#N)c(N[C@H]2C[C@@H](CO)C2(C)C)n1` [Cmpd 140], for which the IC50 lay within 0.1 to 0.8 µM.

Take `CC1(C)C[C@H](Nc2nc(NCc3cncnc3C(F)(F)F)ncc2C(F)(F)F)CC[C@@H]1O` [Cmpd 30]: the IC50 was below 0.1 µM.

Consider `O[C@H]1CC[C@@H](Nc2nc(NCc3cnccc3C(F)(F)F)ncc2C(F)(F)F)CC1` [Cmpd 69], for which the half-maximal inhibitory concentration (IC50) was below 0.1 µM.

On to `N#Cc1cnc(NCCc2ccc3ccccc3n2)nc1N[C@H]1CC[C@@H](O)CC1` [Cmpd 150], for which the IC50 was 2 to 10 µM.

`Cc1nc(CCNc2ncc(C#N)c(N[C@@H]3CC[C@H](O)C(C)(C)C3)n2)no1` [Cmpd 195]: the IC50 lay within 2 to 10 µM.

Take `CC(C)(F)c1ncncc1CNc1ncc(C#N)c(N[C@@H]2CC[C@H](O)C(C)(C)C2)n1` [Cmpd 10]: the IC50 was below 0.1 µM.

For `CC(F)(F)COc1ncncc1CNc1ncc(C#N)c(NC2C[C@@H](O)C2(C)C)n1` (some centres unmarked) [Cmpd 88], the IC50 was below 0.1 µM.

Consider `CCc1ncncc1CNc1ncc(C#N)c(N[C@@H]2C[C@H](O)C2(C)C)n1` [Cmpd 67], for which the IC50 is below 0.1 µM.

Consider `CNC(=O)[C@H]1CC[C@@H](Nc2nc(NCc3cncnc3Oc3cccc(C)c3)ncc2C#N)CC1` [Cmpd 22], for which the IC50 is below 0.1 µM.

The record behind these values is patent US9783505B2, “Substituted diaminopyrimidyl compounds, compositions thereof, and methods of treatment therewith” (Signal Pharmaceuticals, LLC, priority 2013, dated 2017).
